This is an account of results in ChEMBL document CHEMBL1287687, “5-benzyloxytryptamine as an antagonist of TRPM8” (Bioorg Med Chem Lett, 2010).

Structures are written as SMILES. Activity calls are given as the source filed them. The rule behind the calls is not given here.

What is called IC50 is the concentration that gives 50% inhibition.

In test [1] the target is T1, Transient receptor potential cation channel subfamily M member 8 (Homo sapiens, UniProt Q7Z2W7). Nature of the test: Antagonist activity at human TRPM8 receptor expressed in human T-REx-293 cells assessed as inhibition of menthol-induced 45calcium influx treated 5 mins before menthol challenge measured after 5 mins. In kind it is functional, cell-based, HEK293.
Target sequence in this assay (Q7Z2W7 whole entry): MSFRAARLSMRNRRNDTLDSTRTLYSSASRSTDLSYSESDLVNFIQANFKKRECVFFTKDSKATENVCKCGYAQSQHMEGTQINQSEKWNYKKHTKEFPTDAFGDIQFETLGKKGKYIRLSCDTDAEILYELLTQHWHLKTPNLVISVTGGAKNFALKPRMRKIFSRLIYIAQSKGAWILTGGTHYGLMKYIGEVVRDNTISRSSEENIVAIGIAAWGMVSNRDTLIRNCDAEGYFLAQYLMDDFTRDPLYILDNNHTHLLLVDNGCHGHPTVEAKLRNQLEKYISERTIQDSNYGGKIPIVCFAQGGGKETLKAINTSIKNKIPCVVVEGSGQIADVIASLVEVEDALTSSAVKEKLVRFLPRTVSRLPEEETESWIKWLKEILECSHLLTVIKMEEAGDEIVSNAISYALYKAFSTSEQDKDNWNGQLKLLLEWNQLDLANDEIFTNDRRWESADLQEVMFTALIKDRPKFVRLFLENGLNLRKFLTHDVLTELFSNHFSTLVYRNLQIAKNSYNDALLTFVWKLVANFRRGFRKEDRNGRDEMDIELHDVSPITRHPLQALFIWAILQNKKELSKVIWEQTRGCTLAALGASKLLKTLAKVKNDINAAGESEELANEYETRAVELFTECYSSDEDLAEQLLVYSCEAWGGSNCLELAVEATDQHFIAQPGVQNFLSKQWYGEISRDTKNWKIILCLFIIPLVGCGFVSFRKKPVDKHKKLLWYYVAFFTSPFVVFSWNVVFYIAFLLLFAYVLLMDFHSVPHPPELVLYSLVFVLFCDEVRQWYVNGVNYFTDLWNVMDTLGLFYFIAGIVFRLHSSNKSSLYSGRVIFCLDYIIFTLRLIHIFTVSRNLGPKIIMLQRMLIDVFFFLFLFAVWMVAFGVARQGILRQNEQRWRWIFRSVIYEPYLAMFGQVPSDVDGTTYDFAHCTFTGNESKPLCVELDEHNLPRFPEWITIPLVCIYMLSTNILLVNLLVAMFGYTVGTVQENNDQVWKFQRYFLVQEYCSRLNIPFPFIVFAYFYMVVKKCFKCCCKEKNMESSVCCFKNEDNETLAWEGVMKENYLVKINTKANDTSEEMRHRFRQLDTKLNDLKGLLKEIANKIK
The target in test [2] is T1, Transient receptor potential cation channel subfamily M member 8. Nature of the test: Antagonist activity at human TRPM8 receptor expressed in human T-REx-293 cells assessed as inhibition of icilin-induced 45calcium influx treated 5 mins before icilin challenge measured after 5 mins. The class given is functional, cell-based, HEK293.
Target sequence in this assay (Q7Z2W7 whole entry): as above
Test [3] concerns the target Transient receptor potential cation channel subfamily V member 1 (Homo sapiens) (UniProt Q8NER1). Kind of test: Inhibition of TRPV1 receptor up to 10 uM.
Test [4] deals with Transient receptor potential cation channel subfamily V member 4 (Homo sapiens) (UniProt Q9HBA0). Kind of test: Inhibition of TRPV4 receptor up to 10 uM.
Chain of Transient receptor potential cation channel subfamily V member 4 (Homo sapiens) (Q9HBA0 whole entry): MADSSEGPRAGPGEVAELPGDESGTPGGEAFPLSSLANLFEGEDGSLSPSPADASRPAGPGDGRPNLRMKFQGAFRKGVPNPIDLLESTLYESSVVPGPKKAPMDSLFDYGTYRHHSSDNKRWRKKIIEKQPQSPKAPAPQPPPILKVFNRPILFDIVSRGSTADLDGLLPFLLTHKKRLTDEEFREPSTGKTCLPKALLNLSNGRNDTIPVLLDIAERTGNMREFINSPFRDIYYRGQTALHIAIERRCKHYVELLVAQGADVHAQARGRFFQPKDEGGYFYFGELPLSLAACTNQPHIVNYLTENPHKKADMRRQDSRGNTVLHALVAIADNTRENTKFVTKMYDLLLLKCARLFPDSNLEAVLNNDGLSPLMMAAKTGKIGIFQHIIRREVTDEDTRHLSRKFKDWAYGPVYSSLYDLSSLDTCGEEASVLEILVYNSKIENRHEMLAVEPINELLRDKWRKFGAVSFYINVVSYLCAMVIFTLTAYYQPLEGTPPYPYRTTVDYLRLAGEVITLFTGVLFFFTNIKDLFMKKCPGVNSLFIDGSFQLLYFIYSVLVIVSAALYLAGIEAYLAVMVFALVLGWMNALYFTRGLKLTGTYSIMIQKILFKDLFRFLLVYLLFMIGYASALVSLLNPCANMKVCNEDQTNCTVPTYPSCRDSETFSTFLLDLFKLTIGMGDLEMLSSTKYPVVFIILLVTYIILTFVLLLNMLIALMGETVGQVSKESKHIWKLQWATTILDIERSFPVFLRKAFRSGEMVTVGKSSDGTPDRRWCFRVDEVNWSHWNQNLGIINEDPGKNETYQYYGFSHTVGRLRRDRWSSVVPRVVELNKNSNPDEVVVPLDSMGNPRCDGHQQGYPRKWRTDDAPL
Test [5] concerns the target Transient receptor potential cation channel subfamily A member 1 (Homo sapiens) (UniProt O75762). Kind of test: Inhibition of TRPA1 receptor up to 10 uM.
Test [6] deals with T1, Transient receptor potential cation channel subfamily M member 8. The settings on record: HEK293, 1 uM.
Target sequence in this assay (Q7Z2W7 whole entry, looked up): as the sequence (Q7Z2W7 whole entry) above
Description: Antagonist activity at human TRPM8 receptor expressed in HEK cells assessed as inhibition of WS-12-stimulated current at 1 uM pretreated for 2 mins by patch clamp assay
The target is the same in test [7]. Kind of test: Antagonist activity at human TRPM8 receptor expressed in HEK cells assessed as inhibition of WS-12-stimulated current at 100 uM pretreated for 2 mins by patch clamp assay. The settings on record: HEK293. In kind it is functional, cell-based. In general terms: In patch-clamp work, channel activity is measured electrically.
Target sequence in this assay (Q7Z2W7 whole entry, looked up): as the sequence (Q7Z2W7 whole entry) above

Chain of Transient receptor potential cation channel subfamily V member 1 (Homo sapiens) (Q8NER1 whole entry): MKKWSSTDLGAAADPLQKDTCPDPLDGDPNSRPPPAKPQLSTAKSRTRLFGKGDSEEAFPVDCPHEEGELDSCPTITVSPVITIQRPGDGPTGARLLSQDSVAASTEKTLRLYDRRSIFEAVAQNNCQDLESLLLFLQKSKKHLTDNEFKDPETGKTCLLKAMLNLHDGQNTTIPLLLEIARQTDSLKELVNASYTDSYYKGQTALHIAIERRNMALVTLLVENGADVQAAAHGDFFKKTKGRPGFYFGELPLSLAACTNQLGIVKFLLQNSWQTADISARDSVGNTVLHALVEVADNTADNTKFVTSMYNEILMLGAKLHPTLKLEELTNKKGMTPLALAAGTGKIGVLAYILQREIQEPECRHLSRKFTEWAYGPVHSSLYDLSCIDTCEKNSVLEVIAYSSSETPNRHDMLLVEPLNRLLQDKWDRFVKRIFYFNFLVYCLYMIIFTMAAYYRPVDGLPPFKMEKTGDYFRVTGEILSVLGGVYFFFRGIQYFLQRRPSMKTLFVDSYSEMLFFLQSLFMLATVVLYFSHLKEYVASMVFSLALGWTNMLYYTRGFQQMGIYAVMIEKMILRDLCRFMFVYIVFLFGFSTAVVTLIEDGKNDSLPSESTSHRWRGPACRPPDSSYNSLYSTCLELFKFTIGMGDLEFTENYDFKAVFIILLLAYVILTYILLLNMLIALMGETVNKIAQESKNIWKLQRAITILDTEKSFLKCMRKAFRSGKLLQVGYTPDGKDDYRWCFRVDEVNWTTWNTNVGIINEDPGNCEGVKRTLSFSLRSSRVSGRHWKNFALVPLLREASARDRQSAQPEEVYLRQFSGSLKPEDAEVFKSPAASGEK
Chain of Transient receptor potential cation channel subfamily A member 1 (Homo sapiens) (O75762 whole entry): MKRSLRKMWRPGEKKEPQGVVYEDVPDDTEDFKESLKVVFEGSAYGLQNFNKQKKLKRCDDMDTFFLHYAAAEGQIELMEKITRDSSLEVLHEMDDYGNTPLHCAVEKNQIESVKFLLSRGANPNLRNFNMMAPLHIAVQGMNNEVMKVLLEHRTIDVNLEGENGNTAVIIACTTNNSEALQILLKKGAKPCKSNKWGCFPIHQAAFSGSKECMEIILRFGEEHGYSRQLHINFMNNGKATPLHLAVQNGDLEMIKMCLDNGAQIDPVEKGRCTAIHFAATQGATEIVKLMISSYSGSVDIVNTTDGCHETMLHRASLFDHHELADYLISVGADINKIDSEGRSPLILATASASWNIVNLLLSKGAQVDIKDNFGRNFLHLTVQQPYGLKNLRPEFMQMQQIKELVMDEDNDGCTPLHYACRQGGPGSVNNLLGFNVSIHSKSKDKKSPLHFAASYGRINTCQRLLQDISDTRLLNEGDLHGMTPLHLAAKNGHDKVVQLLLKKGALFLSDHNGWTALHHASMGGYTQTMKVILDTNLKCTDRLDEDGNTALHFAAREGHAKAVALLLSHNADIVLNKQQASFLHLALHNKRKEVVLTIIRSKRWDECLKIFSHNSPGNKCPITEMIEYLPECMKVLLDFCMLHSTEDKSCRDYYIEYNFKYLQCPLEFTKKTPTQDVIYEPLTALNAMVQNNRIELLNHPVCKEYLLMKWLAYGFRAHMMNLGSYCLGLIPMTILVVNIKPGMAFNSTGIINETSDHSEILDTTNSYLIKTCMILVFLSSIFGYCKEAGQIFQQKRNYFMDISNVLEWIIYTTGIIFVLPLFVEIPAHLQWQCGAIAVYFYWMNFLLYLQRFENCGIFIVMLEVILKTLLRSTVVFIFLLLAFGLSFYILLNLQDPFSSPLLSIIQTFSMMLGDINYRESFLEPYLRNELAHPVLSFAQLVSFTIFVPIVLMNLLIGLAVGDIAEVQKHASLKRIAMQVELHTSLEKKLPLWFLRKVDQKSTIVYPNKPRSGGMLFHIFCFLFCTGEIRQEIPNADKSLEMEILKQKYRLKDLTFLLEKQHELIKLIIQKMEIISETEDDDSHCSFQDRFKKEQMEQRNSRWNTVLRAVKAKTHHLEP

Take `NCCc1c[nH]c2c(OCc3ccccc3)cccc12`: the IC50 in test [1] (read-out: IC50) is 3.34 µM; in test [2], 8.93 µM.
On the same counts, the results for `COc1ccc2[nH]cc(CCN)c2c1` [5-METHOXYTRYPTAMINE] are 12.4 µM and 11.6 µM.
The corresponding values for `Cc1[nH]c2ccc(OCc3ccccc3)cc2c1CCN` are 1.5 µM and 2.36 µM.
In the case of `N#CCc1c[nH]c2ccc(OCc3ccccc3)cc12`, the 50% inhibitory concentration (IC50) result in test [1] (hek293) was “Not Active”.
On to `NCCc1c[nH]c2ccc(OCc3ccccc3)cc12` [5-BENZYLOXYTRYPTAMINE], for which the 50% inhibitory concentration (IC50) in test [1] (read-out: IC50) came out at 0.34 µM; in test [2] it was 0.66 µM. In addition, the inhibition result in test [3], in test [4] and in test [5] was “inactive” each time. In test [6], the inhibition entry was “Active”.
With `CN(C)CCc1c[nH]c2ccc(OCc3ccccc3)cc12`, the values for the IC50 in test [1] (read-out: IC50) and in test [2] were 5.63 µM and 5.96 µM, respectively.
As to `NCCc1c[nH]c2ccc(F)cc12`, the IC50 is 12.3 µM in test [1] (read-out: IC50) and 13.1 µM in test [2].
`c1ccc(COc2ccc3[nH]ccc3c2)cc1`: the IC50 entry in test [1] (hek293) is on record as “Not Active”.
Take `NCCc1c[nH]c2ccc(Br)cc12`: the figures for the half-inhibitory concentration (IC50) in test [1] (read-out: IC50) and in test [2] were 22.7 µM and 30.4 µM, respectively.
The corresponding values for `NCCc1c[nH]c2ccc(Cl)cc12` are 21.5 µM and 32.2 µM.
On the same counts, the results for `CCOC(=O)NCCc1c[nH]c2ccc(OCc3ccccc3)cc12` are 21.6 µM and 28.8 µM.
With `NCCc1c[nH]c2ccc(O)cc12`, the inhibition entry in test [7] is “inactive”.
